The values that follow come from patent publication US9288990B2, “Synergistic weed control from applications of penoxsulam and pethoxamid” (Dow AgroSciences, LLC, priority 2013, dated 2016).

Assay type in all cases: in vivo
The subject of experiment [1] is Chenopodium album L. (common lambsquarters, CHEAL). In words: Pre-emergence field trial, weed control of CHEAL. As to the method:
(§1) Field trials were conducted with applications made in the area of naturally occurring weed populations in Germany, France, Hungary and Italy. The soil was treated prior to the emergence of target plants. All treatments were applied using a randomized complete block trial design, plots 3 meters (m) wide by 8-10 m long, with 3 replications per treatment.
(§2) Treatments consisted of penoxsulam and pethoxamid, applied alone and in combination. Spray solutions were prepared using an appropriate amount of dilution to treat the area of the plots based on use rates and water volumes necessary based on a per hectacre basis. Spray solutions were prepared and applied with the specified active ingredients in single and two-way combinations to be able to perform Colby synergy calculations. Formulated products were applied to the soil with a backpack or bicycle compressed air sprayer equipped with flat fas nozzles calibrated to deliver from 200 to 300 L/ha at a normal spray height above the solid, at spray pressures ranging from 210 to 350 kilopascals (kPa).
(§3) The treated plots and control plots were rated blind at various intervals after application. Ratings were based on a scale of 0-100%, as discussed above, wherein 0% indicates no control of the undesired vegetation and 100% indicates complete control of the undesired vegetation.
(§4) Colby's equation was used to determine the herbicidal effects expected from the mixtures, as described above. The results were measured at the evaluation intervals provided in Table 1 after the first application of the compositions. […] The herbicide tank mix combinations tested, application rates and ratios employed, plant species tested, and results are given below.

The subject of experiment [2] is Kickxia elantine (canker root, KICEL). The experiment can be described thus: Pre-emergence field trial, weed control of KICEL. As to the method:
as §1, §2
(§5) The treated plots and control plots were rated blind at various intervals after application. […]
(§6) Colby's equation was used to determine the herbicidal effects expected from the mixtures, as described above. The results were measured at the evaluation intervals provided in Table 1 after the first application of the compositions. […]

For experiment [3], the system named is Mercurialis annua (annual mercury, MERAN). The experiment can be described thus: Pre-emergence field trial, weed control of MERAN. Conditions: 29 days. Here is the method:
as §1, §2, §5, §6

For experiment [4], the system named is Ambrosia artemisiifolia L. (common ragweed, AMBEL). The experiment can be described thus: Pre-emergence field trial, weed control of AMBEL. Here is the method:
as §1, §2, §3, §4

Experiment [5] has as its system Echinochloa crus-galli (L.) P. Beauv. (barnyardgrass, ECHCG). The experiment can be described thus: Pre-emergence field trial, weed control of ECHCG. Here is the method:
as §1, §2, §3, §4

The subject of experiment [6] is Xanthium strumarium L. (common cocklebur, XANST). The experiment can be described thus: Pre-emergence field trial, weed control of XANST. As to the method:
as §1, §2, §3, §4

For experiment [7], the system named is Polygonum persicaria L. (ladysthumb, POLPE). In words: Pre-emergence field trial, weed control of POLPE. Conditions: 54 days. Here is the method:
as §1, §2, §5, §6

Where [8] appears, read: 14 days, penoxsulam 5 g ai/ha alone.
[9] abbreviates: 28 days, penoxsulam 5 g ai/ha alone.
Setting [10] is: 28 days, penoxsulam 10 g ai/ha alone.
The mark [11] stands for this setting: 58 days, penoxsulam 5 g ai/ha alone.
[12] abbreviates: 58 days, penoxsulam 10 g ai/ha alone.
[13] abbreviates: 14 days, pethoxamid 1200 g ai/ha alone.
Where [14] appears, read: 28 days, pethoxamid 1200 g ai/ha alone.
The mark [15] stands for this setting: 58 days, pethoxamid 1200 g ai/ha alone.

Turning to `COc1cnc(OC)n2nc(NS(=O)(=O)c3c(OCC(F)F)cccc3C(F)(F)F)nc12` [Penoxsulam], the “Mean % weed control” value in experiment [1] (setting [8]) was 26.67%; in experiment [1] (setting [9]), 13.33%; in experiment [1] (29 days, penoxsulam 5 g ai/ha alone), 95%; in experiment [1] (46 days, penoxsulam 5 g ai/ha alone) it was 43.33%; in experiment [2] (696 h) it was 20%; in experiment [3] (penoxsulam 10 g ai/ha alone) it was 36.67%. Besides, the “Mean % weed control” value in experiment [4] (setting [8]) is given as 50%; in experiment [4] (14 days, penoxsulam 10 g ai/ha alone), 78.33%; in experiment [4] (setting [9]), 33.33%; in experiment [4] (setting [10]) it was 66.67%; in experiment [4] (setting [11]), 33.33%; in experiment [4] (setting [12]), 66.67%. Also, the “Mean % weed control” value in experiment [5] (setting [10]) is listed as 76.67%; in experiment [5] (setting [11]) it was 20%; in experiment [5] (setting [12]) it was 63.33%; in experiment [6] (setting [9]), 20%; in experiment [6] (setting [11]), 10%; in experiment [7] (penoxsulam 5 g ai/ha alone), 90%.

On to `CCOCCN(C(=O)CCl)C(=C(C)C)c1ccccc1` [Pethoxamid, 2-chloro-N-(ethoxyethyl)-N-(2-methyl-1-phenylprop-1-enyl)acetamide], for which the “Mean % weed control” value in experiment [1] (setting [13]) was determined as 26.67%; in experiment [1] (setting [14]), 6.67%; in experiment [1] (29 days, pethoxamid 1200 g ai/ha alone) it was 0%; in experiment [1] (46 days, pethoxamid 1200 g ai/ha alone), 16.67%; in experiment [2] (KICEL, 29 days, pethoxamid 1200 g ai/ha alone), 0%; in experiment [3] (pethoxamid 1200 g ai/ha alone), 0%. In addition, the “Mean % weed control” value came out at 33.33% in experiment [4] (setting [13]); 13.33% in experiment [4] (setting [14]); 13.33% in experiment [4] (setting [15]); 33.33% in experiment [5] (setting [14]); 16.67% in experiment [5] (setting [15]); 3.33% in experiment [6] (setting [14]). Also, the results for the “Mean % weed control” value in experiment [6] (setting [15]) and in experiment [7] (pethoxamid 1200 g ai/ha alone) were 0% and 72.33%, respectively.
